# Laboratory results as given in PMC4552603 (Pharmacology, biochemistry, and behavior, 2015).
# Where a name gives a salt, the structure may show the parent alone.
# Tests used:
# [1] = system: rats; assay: Conditioned place preference; assay type: in vivo, rat; conditions: morphine 1 mg/kg s.c.; for mean change from baseline (time in drug-paired compartment): rats
# [2] = system: rats; conditions: rat, in vivo
compound,measurement,setting,value
"CN1CC[C@]23c4c5ccc(O)c4O[C@H]2[C@@H](O)C=C[C@H]3[C@H]1C5 [Morphine, Morphine sulfate]",place preference,"[1]; vs saline, two-way ANOVA p = 0.0013",significant place preference
same,mean change from baseline (time in drug-paired compartment),[1]; test session one,+83.4 sec
same,mean change from baseline (time in drug-paired compartment),[1]; test session two,+96.62 sec
same,responding (drug infusions) vs saline,[2],significantly greater responding than saline
